The nature of the data set: Human HepG2 cell viability assay in 384 well format. Type of data set: toxicity, cell-based. Also on record: dose 125 nL, time 70.5 hour; cytotoxicity at 70.5 h: concentration not given beside the values. As to conditions: HepG2 cells, read-out: Inhibition.
As for `COc1ccc(C(=O)N2C[C@@H](C)[C@@](C)(O)C2)cc1N1CCOCC1`, the cytotoxicity at 70.5 h stood at 2.73%. As for `CN1CC2(CCN(CCCOCc3ccccc3)CC2)OC1=O`, the cytotoxicity at 70.5 h was -9.74%.

For the molecule `N[C@H]1CN(C(=O)Cc2cc(F)cc(Cl)c2)C[C@@H]1C1CC1`, the cytotoxicity at 70.5 h was -3.32%. In the case of `NC(=O)CNC(=O)c1cc(Cn2cnc3ccccc32)[nH]n1` it was -5.83%; in that of `Cc1csc(CCNC(=O)C2CCN(CC(N)=O)CC2)n1`, 8.97%; in that of `CC(C)c1nccn1CCCNC(=O)c1ccc(-c2cccnc2)nc1`, -9.12%. In the case of `CN1CCN2CCN(C(=O)c3cc4ncc(CCO)cn4n3)CC2C1` (stereo unspecified), the cytotoxicity at 70.5 h is -15.2%. As for `CCNC(=O)C1CCN(c2cc(-c3ccccc3)nc3cc(C)nn23)C1` (stereo unspecified), the figure is -2.31%. As for `Cc1ccc(OCc2occc2C(=O)N2CCOC(C(=O)O)C2)cc1` (stereo unspecified), the figure is 11.5%. As for `O[C@@H]1CN(c2nc3ccccc3s2)CC[C@H]1c1ccc2c(c1)OCO2`, the figure is -3.71%; as for `CN(Cc1cn(CC2CCNCC2)nn1)CC1CCCCO1` (stereo unspecified), -8.15%; as for `CCc1nc(N2CCC3(CCC(=O)N(CCCO)C3)CC2)no1`, 9.45%. Take `C1CCC(c2nn3c(C4CCCO4)nnc3s2)C1` (stereo unspecified): the cytotoxicity at 70.5 h is -9.64%. Turning to `O=C1NCCN(C(=O)c2cn3ccsc3n2)C1c1cccc(F)c1` (stereo unspecified), the cytotoxicity at 70.5 h stood at 25.9%.

Take `Cc1cc(C)n(-c2ccccc2NC(=O)NCCS(=O)(=O)CC(C)C)n1`: the cytotoxicity at 70.5 h was -8.6%. For the molecule `COc1cc(NC(=O)c2ccc(CN3CC[C@H](O)C3)cc2)cc(OC)c1`, the cytotoxicity at 70.5 h is -10.7%. As for `Cc1nn(-c2ccccc2)c(C)c1-c1ccnc(N2CCC(O)CC2)n1`, the figure is -5.36%. In the case of `CC(C)c1csc(C(=O)N2CCCC(Cn3cc(CO)nn3)C2)n1` (stereo unspecified) it was -0.0869%; in that of `O=C(NC1CCCCC1)N1C[C@H]2CN(c3cnccn3)C[C@@]2(C(=O)O)C1`, -14.9%.

In the case of `CN(Cc1ccc(C(=O)Nc2sccc2C#N)cc1)Cc1ccno1`, the cytotoxicity at 70.5 h was -5.41%. Consider `O=C(c1ccc(C2CCNC2)cc1)N1CCC(N2CCC(O)CC2)CC1` (stereo unspecified), for which the cytotoxicity at 70.5 h came to 3.75%. As for `COc1ccccc1CNC(=O)CN(C)C(C)c1ccon1` (stereo unspecified), the figure is -18.5%; as for `Cc1cccc(C(C(=O)N(C)Cc2ccco2)N(C)C)c1` (stereo unspecified), 2.2%. Turning to `CCc1ncc(CN2CCC3(CCCN(CC4CCC4)C3)C2)cn1` (stereo unspecified), the cytotoxicity at 70.5 h was -6.02%. With `CN(CCn1ccc2ccccc21)C(=O)Cc1n[nH]c(=O)[nH]1`, the cytotoxicity at 70.5 h was 1.76%. As for `Cc1cnn(CCCNC(=O)CCC2CCCCN2C)c1` (stereo unspecified), the figure is -13.1%; as for `COc1ccc(OC)c(CNCc2ccnc(N3CCCCC3)c2)c1`, -8.18%; as for `COc1cc(CNCc2ccnc(N3CCCCC3)c2)cc(OC)c1`, 4.65%. In the case of `CCS(=O)(=O)N1CCC(NC(=O)c2cc(C(C)C)ccc2O)CC1` it was 1.02%; in that of `CC(C)CCN(C)Cc1nc2c(cnn2C)c(=O)[nH]1`, -5.91%. In the case of `Cc1ccsc1CN(Cc1nc2c(cnn2C)c(=O)[nH]1)C(C)C` it was 2.45%. Turning to `Cc1cccc(OCCC(=O)NCC2CN(C)CCO2)c1C` (stereo unspecified), the cytotoxicity at 70.5 h is -5.5%. As for `CN1CCOC(CNC(=O)CCCOc2cccc(F)c2)C1` (stereo unspecified), the figure is 0.774%; as for `CC(C)c1nn(C)c(N2CCOCC2)c1CNCCC(=O)N(C)C`, 22.2%; as for `CCc1nnc2n1CCN(C(C(=O)NC1CC1)c1ccccc1)C2` (stereo unspecified), -7.08%.

In the case of `Cc1nnc2n1CCN(C(C(=O)N1CCCCC1)c1ccccc1)C2` (stereo unspecified), the cytotoxicity at 70.5 h was -1.38%. In the case of `Cc1ccc(-c2nc(CNC3CCc4ncnn4C3)cs2)cc1` (stereo unspecified) it was 2.93%. Regarding `Cc1nc2n(n1)CC(NCc1csc(-c3ccsc3)n1)CC2` (stereo unspecified), the cytotoxicity at 70.5 h is -8.64%. As for `Cc1c(F)cc(C(=O)O)cc1S(=O)(=O)Nc1ccccc1`, the cytotoxicity at 70.5 h was 3.77%. In the case of `O=C(CCOc1ccccc1)N1CCCC(n2cncn2)C1` (stereo unspecified) it was 2.02%; in that of `Cc1ccc(CC(=O)N2CCc3nnc(N(C)C)cc3C2)s1`, -4.06%; in that of `O=C(NC1CC1)C(c1ccccc1)N1CCn2c(nnc2C2CC2)C1` (stereo unspecified), 1.07%. As for `COCc1nc(C(=O)NS(=O)(=O)c2ccc(Cl)cc2F)cs1`, the figure is -3.46%; as for `NC(=O)c1ccc(OCC(=O)NS(=O)(=O)c2ccc3c(c2)CCC3)cc1`, -2.69%. As for `CC(C)(O)CN1CCN(C(=O)c2ccc(Cl)c3cccnc23)CC1`, the figure is 26%; as for `O=C(Nc1cccc(F)c1)C1CCCN1c1nccs1` (stereo unspecified), 1.52%. Take `N#Cc1cccc(NC(=O)C2CCCN2c2nccs2)c1` (stereo unspecified): the cytotoxicity at 70.5 h is -2.24%. In the case of `CC1CN(C(=O)c2cccc(OCc3cscn3)c2)CCO1` (stereo unspecified) it was -1.66%; in that of `CC(=O)N1CCN(C(=O)c2cccc(OCc3cscn3)c2)CC1`, 0.43%.

Turning to `CCC1CN(C(=O)c2cccc(OCc3cscn3)c2)CCO1` (stereo unspecified), the cytotoxicity at 70.5 h is -5.57%. `O=C(NCCCn1ccnc1)N1CCCC1c1ccsc1` (stereo unspecified): the cytotoxicity at 70.5 h amounted to 24.9%. Turning to `COc1ccc(NC(=O)N(CC2CCOC2)C2CC2)cn1` (stereo unspecified), the cytotoxicity at 70.5 h is -6.27%. In the case of `CCN(CC1CCOC1)C(=O)Nc1ccc(N2CCCCC2)nc1` (stereo unspecified) it was -1.47%; in that of `NC(=O)C1CCCN(C(=O)c2cccc(OCc3cscn3)c2)C1` (stereo unspecified), -9.59%. As for `Cc1cc(CN(C)C(=O)NC2CCN(C3CC3)CC2)no1`, the cytotoxicity at 70.5 h is -3%. As for `Cc1noc(C)c1CN(C)C(=O)NC1CCCN(S(C)(=O)=O)C1` (stereo unspecified), the figure is 0.729%; as for `Cc1ccc(C(=O)N2CCCN(Cc3cccs3)CC2)c(=O)[nH]1`, -0.458%; as for `O=C(c1cccnc1O)N1CCN(CCc2cccs2)CC1`, -6.9%.

Take `CCOC(=O)CCNC(=O)c1nc(OCC)ccc1Cl`: the cytotoxicity at 70.5 h was -3.61%.

In the case of `Cc1n[nH]c(=O)c(C(=O)N2CCN(CCc3cccs3)CC2)c1C`, the cytotoxicity at 70.5 h was -2.36%. In the case of `CCN(CC1CCOC1)C(=O)Nc1ccc(OCC(F)(F)F)nc1` (stereo unspecified) it was -2.33%; in that of `Cn1cnc2c1CCN(Cc1csc(-c3ccccc3F)n1)C2`, -3.29%.

For `CC(O)CN1CCN(C(=O)c2cc(Cl)cc3cccnc23)CC1` (stereo unspecified), the cytotoxicity at 70.5 h is -5.43%. As for `CC(C)(O)CN1CCN(C(=O)c2cccc3cccnc23)CC1`, the figure is -2.87%; as for `CCc1[nH]ncc1C(=O)N1CCCN(Cc2nccn2C(C)C)CC1`, 0.199%. Take `CCOc1ccc(Cl)c(C(=O)NCCc2ncc[nH]2)n1`: the cytotoxicity at 70.5 h was -3.13%. In the case of `Cc1nc(CN2CCCN(C(=O)c3cccnc3O)CC2)cs1` it was -4.77%; in that of `CCC(O)CN1CCN(C(=O)c2cc(Cl)cc3cccnc23)CC1` (stereo unspecified), 18.2%; in that of `NC(=O)c1cc(C2CCCN(CCOCC3CC3)C2)n[nH]1` (stereo unspecified), -1.45%. As to `Cc1nc(C2CCCN2CCCS(=O)(=O)c2ccccc2)no1` (stereo unspecified), the cytotoxicity at 70.5 h is -3.41%.

On to `COc1cc(CNCc2ccnc(N3CCCC3)c2)cc(OC)c1`, for which the cytotoxicity at 70.5 h came to 1.37%.

Values taken from ChEMBL document CHEMBL3507680, “University of Dundee, Gates Library screen for HepG2 cell viability”.
